From patent US20230406885A1, “CYCLIC PEPTIDES FOR TRAPPING INTERLEUKIN-1 BETA” (MERCK SHARP & DOHME LLC, priority 2022, published 2023)
*1 amine or outer side, *2 acyl side, *3 side chain or, on linkers, in order; H or OH if unused. Where a SMILES comes first, the peptide text is derived from it. [ ]: non-standard residue; d: D form. Trp(βS-Me,4-F) = C[C@@H](c1c[nH]c2cccc(F)c12)[C@H](N)C(=O)O; Bip(4'-COOH) = N[C@@H](Cc1ccc(-c2ccc(C(=O)O)cc2)cc1)C(=O)O; X1 = CC(=O)N1CCN(c2ccc(C[C@H](N[*:1])C(=O)[*:2])cn2)CC1; 1Nal(3S-Me) = C[C@@H](c1cccc2ccccc12)[C@H](N)C(=O)O; Phe(4-COOH) = N[C@@H](Cc1ccc(C(=O)O)cc1)C(=O)O; h3Pal(5-CN) = N#Cc1cncc(CC[C@H](N)C(=O)O)c1; Pro(4R-NH2) = N[C@H]1CN[C@H](C(=O)O)C1; AEF = NCCOc1ccc(C[C@H](N)C(=O)O)cc1; hTyr = N[C@@H](CCc1ccc(O)cc1)C(=O)O; hCha = N[C@@H](CCC1CCCCC1)C(=O)O; tBuAla = CC(C)(C)C[C@H](N)C(=O)O; Aad = N[C@@H](CCCC(=O)O)C(=O)O; dNle = CCCC[C@@H](N)C(=O)O; dOrn = NCCC[C@@H](N)C(=O)O; dNva = CCC[C@@H](N)C(=O)O; Orn = NCCC[C@H](N)C(=O)O; dNMeA = CN[C@H](C)C(=O)O; Dab = NCC[C@H](N)C(=O)O; Dap = NC[C@H](N)C(=O)O

molecular target: T1, Recombinant human IL-1β (Homo sapiens, UniProt P01584); test: IL-6 assay in MRC5 cells: inhibition of IL-1β induced IL-6 secretion (AlphaLISA); type: cell-based; details: inhibition of IL-1β induced IL-6 secretion in MRC5 cells; read-out: MRC5 IC50
T1 construct: purchased BioLegend 579404
Method in brief: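 IL-1β at 2×EC80 in seeding medium (EMEM, 0.025% BSA) preincubated 1 h at ambient temperature with compound, then 3000 MRC5 cells/well added and incubated overnight at 37 °C, 5% CO2. IL-6 in conditioned medium quantified by AlphaLISA; IC50 from 4-parameter logistic fit.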

T1 sequence (P01584 117-269): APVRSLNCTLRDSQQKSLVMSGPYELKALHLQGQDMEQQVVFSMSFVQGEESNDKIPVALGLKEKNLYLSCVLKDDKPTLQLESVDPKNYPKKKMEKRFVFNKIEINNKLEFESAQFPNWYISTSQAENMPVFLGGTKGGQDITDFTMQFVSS

| SMILES | IC50 [nM] |
| --- | --- |
| CC(=O)NCCOc1ccc(C[C@@H]2NC(=O)[C@H](CCc3ccc(O)cc3)NC(=O)[C@@H](CCCCN)NC(=O)[C@H](CC(C)C)NC(=O)[C@H](Cc3c[nH]c4ccccc34)NC(=O)[C@H](Cc3ccc(-c4ccc(C(=O)O)cc4)cc3)NC(=O)CNC(=O)[C@@H](C)N(C)C(=O)[C@H](CC(=O)O)NC(=O)[C@H]([C@@H](C)c3c[nH]c4cccc(F)c34)NC(=O)[C@@H]3C[C@@H](N)CN3C(=O)CNC(=O)[C@H](Cc3ccc(C(=O)O)cc3)NC(=O)[C@H](Cc3c[nH]c4ccccc34)NC2=O)cc1 [Example 169] (cyclo([AEF](Ac)W[Phe(4-COOH)]G[Pro(4R-NH2)][Trp(βS-Me,4-F)]D[dNMeA]G[Bip(4'-COOH)]WL[dK][hTyr])) | 0.112 |
| CC(=O)NCCOc1ccc(C[C@@H]2NC(=O)[C@H](CCc3ccc(O)cc3)NC(=O)[C@@H](CCCN)NC(=O)[C@H](CC(C)C)NC(=O)[C@H](Cc3c[nH]c4ccccc34)NC(=O)[C@H](Cc3ccc(-c4ccc(C(=O)O)cc4)cc3)NC(=O)CNC(=O)[C@@H](C)N(C)C(=O)[C@H](CC(=O)O)NC(=O)[C@H]([C@@H](C)c3c[nH]c4cccc(F)c34)NC(=O)[C@@H]3C[C@@H](N)CN3C(=O)CNC(=O)[C@H](Cc3ccc(C(=O)O)cc3)NC(=O)[C@H](Cc3c[nH]c4ccccc34)NC2=O)cc1 [Example 170] (cyclo([AEF](Ac)W[Phe(4-COOH)]G[Pro(4R-NH2)][Trp(βS-Me,4-F)]D[dNMeA]G[Bip(4'-COOH)]WL[dOrn][hTyr])) | 0.0966 |
| CC(=O)NCCOc1ccc(C[C@@H]2NC(=O)[C@H](CCc3ccc(O)cc3)NC(=O)[C@@H](CO)NC(=O)[C@H](CC(C)C)NC(=O)[C@H](Cc3c[nH]c4ccccc34)NC(=O)[C@H](Cc3ccc(-c4ccc(C(=O)O)cc4)cc3)NC(=O)CNC(=O)[C@@H](C)N(C)C(=O)[C@H](CC(=O)O)NC(=O)[C@H]([C@@H](C)c3c[nH]c4cccc(F)c34)NC(=O)[C@@H]3C[C@@H](N)CN3C(=O)CNC(=O)[C@H](Cc3ccc(C(=O)O)cc3)NC(=O)[C@H](Cc3c[nH]c4ccccc34)NC2=O)cc1 [Example 171] (cyclo([AEF](Ac)W[Phe(4-COOH)]G[Pro(4R-NH2)][Trp(βS-Me,4-F)]D[dNMeA]G[Bip(4'-COOH)]WL[dS][hTyr])) | 0.145 |
| CC(=O)NCCOc1ccc(C[C@@H]2NC(=O)[C@H](CCc3ccc(O)cc3)NC(=O)[C@@H](C)NC(=O)[C@H](CO)NC(=O)[C@H](Cc3c[nH]c4ccccc34)NC(=O)[C@H](Cc3ccc(-c4ccc(C(=O)O)cc4)cc3)NC(=O)CNC(=O)[C@@H](C)N(C)C(=O)[C@H](CC(=O)O)NC(=O)[C@H]([C@@H](C)c3c[nH]c4cccc(F)c34)NC(=O)[C@@H]3C[C@@H](N)CN3C(=O)CNC(=O)[C@H](Cc3ccc(C(=O)O)cc3)NC(=O)[C@H](Cc3c[nH]c4ccccc34)NC2=O)cc1 [Example 172] (cyclo([AEF](Ac)W[Phe(4-COOH)]G[Pro(4R-NH2)][Trp(βS-Me,4-F)]D[dNMeA]G[Bip(4'-COOH)]WS[dA][hTyr])) | 0.246 |
| CC(=O)NCCOc1ccc(C[C@@H]2NC(=O)[C@H](Cc3ccc(OCCNC(C)=O)cc3)NC(=O)[C@@H](C)NC(=O)[C@H](CO)NC(=O)[C@H](Cc3c[nH]c4ccccc34)NC(=O)[C@H](Cc3ccc(-c4ccc(C(=O)O)cc4)cc3)NC(=O)CNC(=O)[C@@H](C)N(C)C(=O)[C@H](CC(=O)O)NC(=O)[C@H]([C@@H](C)c3c[nH]c4cccc(F)c34)NC(=O)[C@@H]3C[C@@H](N)CN3C(=O)CNC(=O)[C@H](Cc3ccc(C(=O)O)cc3)NC(=O)[C@H](Cc3c[nH]c4ccccc34)NC2=O)cc1 [Example 173] (cyclo([AEF](Ac)W[Phe(4-COOH)]G[Pro(4R-NH2)][Trp(βS-Me,4-F)]D[dNMeA]G[Bip(4'-COOH)]WS[dA][AEF](Ac))) | 0.959 |
| CC(=O)N1CCN(c2ccc(C[C@@H]3NC(=O)[C@H](CCC4CCCCC4)NC(=O)[C@@H](C)NC(=O)[C@H](CC(C)C)NC(=O)[C@H](CCN)NC(=O)[C@H](Cc4ccc(-c5ccc(C(=O)O)cc5)cc4)NC(=O)CNC(=O)[C@@H](C)N(C)C(=O)[C@H](CC(=O)O)NC(=O)[C@H]([C@@H](C)c4cccc5ccccc45)NC(=O)[C@@H]4C[C@@H](N)CN4C(=O)CNC(=O)[C@H](Cc4ccc(C(=O)O)cc4)NC(=O)[C@H](Cc4c[nH]c5ccccc45)NC3=O)cn2)CC1 [Example 174] (cyclo([X1]W[Phe(4-COOH)]G[Pro(4R-NH2)][1Nal(3S-Me)]D[dNMeA]G[Bip(4'-COOH)][Dab]L[dA][hCha])) | 0.015 |
| CC(=O)N1CCN(c2ccc(C[C@@H]3NC(=O)[C@H](CCC4CCCCC4)NC(=O)[C@@H](C)NC(=O)[C@H](CC(C)C)NC(=O)[C@H](CN)NC(=O)[C@H](Cc4ccc(-c5ccc(C(=O)O)cc5)cc4)NC(=O)CNC(=O)[C@@H](C)N(C)C(=O)[C@H](CC(=O)O)NC(=O)[C@H]([C@@H](C)c4cccc5ccccc45)NC(=O)[C@@H]4C[C@@H](N)CN4C(=O)CNC(=O)[C@H](Cc4ccc(C(=O)O)cc4)NC(=O)[C@H](Cc4c[nH]c5ccccc45)NC3=O)cn2)CC1 [Example 175] (cyclo([X1]W[Phe(4-COOH)]G[Pro(4R-NH2)][1Nal(3S-Me)]D[dNMeA]G[Bip(4'-COOH)][Dap]L[dA][hCha])) | 0.016 |
| CC(=O)N1CCN(c2ccc(C[C@@H]3NC(=O)[C@H](CCc4cncc(C#N)c4)NC(=O)[C@@H](C)NC(=O)[C@H](CC(C)C)NC(=O)[C@H](CCCC(N)=O)NC(=O)[C@H](Cc4ccc(-c5ccc(C(=O)O)cc5)cc4)NC(=O)CNC(=O)[C@@H](C)N(C)C(=O)[C@H](CC(=O)O)NC(=O)[C@H]([C@@H](C)c4cccc5ccccc45)NC(=O)[C@@H]4C[C@@H](N)CN4C(=O)CNC(=O)[C@H](Cc4ccc(C(=O)O)cc4)NC(=O)[C@H](Cc4c[nH]c5ccccc45)NC3=O)cn2)CC1 [Example 176] (cyclo([X1]W[Phe(4-COOH)]G[Pro(4R-NH2)][1Nal(3S-Me)]D[dNMeA]G[Bip(4'-COOH)][Aad](NH2)L[dA][h3Pal(5-CN)])) | 0.017 |
| CC(=O)N1CCN(c2ccc(C[C@@H]3NC(=O)[C@H](CCC4CCCCC4)NC(=O)[C@@H](C)NC(=O)[C@H](CC(C)C)NC(=O)[C@H](CCCCN)NC(=O)[C@H](Cc4ccc(-c5ccc(C(=O)O)cc5)cc4)NC(=O)CNC(=O)[C@@H](C)N(C)C(=O)[C@H](CC(=O)O)NC(=O)[C@H]([C@@H](C)c4cccc5ccccc45)NC(=O)[C@@H]4C[C@@H](N)CN4C(=O)CNC(=O)[C@H](Cc4ccc(C(=O)O)cc4)NC(=O)[C@H](Cc4c[nH]c5ccccc45)NC3=O)cn2)CC1 [Example 177] (cyclo([X1]W[Phe(4-COOH)]G[Pro(4R-NH2)][1Nal(3S-Me)]D[dNMeA]G[Bip(4'-COOH)]KL[dA][hCha])) | 0.013 |
| CC(=O)N1CCN(c2ccc(C[C@@H]3NC(=O)[C@H](CCc4cncc(C#N)c4)NC(=O)[C@@H](CC(C)C)NC(=O)[C@H](CC(C)C)NC(=O)[C@H](CCCCN)NC(=O)[C@H](Cc4ccc(-c5ccc(C(=O)O)cc5)cc4)NC(=O)CNC(=O)[C@@H](C)N(C)C(=O)[C@H](CC(=O)O)NC(=O)[C@H]([C@@H](C)c4cccc5ccccc45)NC(=O)[C@@H]4C[C@@H](N)CN4C(=O)CNC(=O)[C@H](Cc4ccc(C(=O)O)cc4)NC(=O)[C@H](Cc4c[nH]c5ccccc45)NC3=O)cn2)CC1 [Example 178] (cyclo([X1]W[Phe(4-COOH)]G[Pro(4R-NH2)][1Nal(3S-Me)]D[dNMeA]G[Bip(4'-COOH)]KL[dL][h3Pal(5-CN)])) | 0.019 |
| CCCC[C@H]1NC(=O)[C@H](CC(C)C)NC(=O)[C@H](CCCCN)NC(=O)[C@H](Cc2ccc(-c3ccc(C(=O)O)cc3)cc2)NC(=O)CNC(=O)[C@@H](C)N(C)C(=O)[C@H](CC(=O)O)NC(=O)[C@H]([C@@H](C)c2cccc3ccccc23)NC(=O)[C@@H]2C[C@@H](N)CN2C(=O)CNC(=O)[C@H](Cc2ccc(C(=O)O)cc2)NC(=O)[C@H](Cc2c[nH]c3ccccc23)NC(=O)[C@H](Cc2ccc(N3CCN(C(C)=O)CC3)nc2)NC(=O)[C@H](CCc2cncc(C#N)c2)NC1=O [Example 179] (cyclo([X1]W[Phe(4-COOH)]G[Pro(4R-NH2)][1Nal(3S-Me)]D[dNMeA]G[Bip(4'-COOH)]KL[dNle][h3Pal(5-CN)])) | 0.017 |
| CCC[C@H]1NC(=O)[C@H](CC(C)C)NC(=O)[C@H](CCCCN)NC(=O)[C@H](Cc2ccc(-c3ccc(C(=O)O)cc3)cc2)NC(=O)CNC(=O)[C@@H](C)N(C)C(=O)[C@H](CC(=O)O)NC(=O)[C@H]([C@@H](C)c2cccc3ccccc23)NC(=O)[C@@H]2C[C@@H](N)CN2C(=O)CNC(=O)[C@H](Cc2ccc(C(=O)O)cc2)NC(=O)[C@H](Cc2c[nH]c3ccccc23)NC(=O)[C@H](Cc2ccc(N3CCN(C(C)=O)CC3)nc2)NC(=O)[C@H](CCc2cncc(C#N)c2)NC1=O [Example 180] (cyclo([X1]W[Phe(4-COOH)]G[Pro(4R-NH2)][1Nal(3S-Me)]D[dNMeA]G[Bip(4'-COOH)]KL[dNva][h3Pal(5-CN)])) | 0.021 |
| CC(=O)N1CCN(c2ccc(C[C@@H]3NC(=O)[C@H](CCc4cncc(C#N)c4)NC(=O)[C@@H](C)NC(=O)[C@H](CC(C)(C)C)NC(=O)[C@H](CCCCN)NC(=O)[C@H](Cc4ccc(-c5ccc(C(=O)O)cc5)cc4)NC(=O)CNC(=O)[C@@H](C)N(C)C(=O)[C@H](CC(=O)O)NC(=O)[C@H]([C@@H](C)c4cccc5ccccc45)NC(=O)[C@@H]4C[C@@H](N)CN4C(=O)CNC(=O)[C@H](Cc4ccc(C(=O)O)cc4)NC(=O)[C@H](Cc4c[nH]c5ccccc45)NC3=O)cn2)CC1 [Example 181] (cyclo([X1]W[Phe(4-COOH)]G[Pro(4R-NH2)][1Nal(3S-Me)]D[dNMeA]G[Bip(4'-COOH)]K[tBuAla][dA][h3Pal(5-CN)])) | 0.015 |
| CC(=O)N1CCN(c2ccc(C[C@@H]3NC(=O)[C@H](CCC4CCCCC4)NC(=O)[C@@H](C)NC(=O)[C@H](CC(C)C)NC(=O)[C@H](CCCN)NC(=O)[C@H](Cc4ccc(-c5ccc(C(=O)O)cc5)cc4)NC(=O)CNC(=O)[C@@H](C)N(C)C(=O)[C@H](CC(=O)O)NC(=O)[C@H]([C@@H](C)c4cccc5ccccc45)NC(=O)[C@@H]4C[C@@H](N)CN4C(=O)CNC(=O)[C@H](Cc4ccc(C(=O)O)cc4)NC(=O)[C@H](Cc4c[nH]c5ccccc45)NC3=O)cn2)CC1 [Example 182] (cyclo([X1]W[Phe(4-COOH)]G[Pro(4R-NH2)][1Nal(3S-Me)]D[dNMeA]G[Bip(4'-COOH)][Orn]L[dA][hCha])) | 0.013 |
